The values that follow are results of earlier work, collected in patent US20090226522A1, “PROCESS TO MINIMIZE POLYMORPHISM” (priority 2008, published 2009).

Like-named read-outs stand apart in the source and are kept apart here.

On to `Cc1nnc2n1-c1ccc(Cl)cc1C(c1ccccc1)=NC2` [Alprazolam, 8-chloro-1-methyl-6-phenyl-4H-s-triazolo[4,3-α][1,4]benzodiazepine], for which, under “methanol or ethanol”, the “solubility in methanol or ethanol” value was “soluble”. The solubility in water entry runs as follows: (water) “poorly soluble”; (water at physiological pH) “no appreciable solubility”.
